Reference: ChEMBL document CHEMBL1201862, “PubChem BioAssay data set” (2004)
Structures can show the parent of a compound that is named as a salt.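 The compound was tested at five concentrations on cells cultured in 96-well plates, with a 48-hour exposure period. At the GI50, growth is halved.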 Activity calls are given as the source filed them. Rule as the data show it: active = GI50 up to about 1.1 µM and inactive = higher.

Key:
Assay in all cases: growth of human tumour cells (NCI), 48 h
ACHN = system: ACHN
HCC 2998 = system: HCC 2998
HCT-15 = system: HCT-15
HT-29 = system: HT-29
IGROV-1 = system: IGROV-1
MCF7 = system: MCF7
MDA-MB-435 = system: MDA-MB-435
MDA-N = system: MDA-N
Malme-3M = system: Malme-3M
NCI/ADR-RES = system: NCI/ADR-RES
OVCAR-4 = system: OVCAR-4
SF-539 = system: SF-539
SK-MEL-28 = system: SK-MEL-28
SK-OV-3 = system: SK-OV-3
SN12C = system: SN12C
SNB-19 = system: SNB-19
SNB-75 = system: SNB-75
SW-620 = system: SW-620
OVCAR-3 = system: OVCAR-3

SMILES	GI50 (ACHN)	GI50 (HCC 2998)	GI50 (HCT-15) [µM]	GI50 (HT-29)	GI50 (IGROV-1)	GI50 (MCF7)	GI50 (MDA-MB-435)	GI50 (MDA-N)	GI50 (Malme-3M)	GI50 (NCI/ADR-RES)	GI50 (OVCAR-4)	GI50 (SF-539)	GI50 (SK-MEL-28)	GI50 (SK-OV-3)	GI50 (SN12C)	GI50 (SNB-19)	GI50 (SNB-75)	GI50 (SW-620)	GI50 (OVCAR-3)
O=C(/C=C/c1ccsc1)c1ccc(Cl)cc1	> 100 µM (inactive)	> 100 µM (inactive)	39.7	36.5 µM (inactive)	> 100 µM (inactive)	34.8 µM (inactive)	41.8 µM (inactive)	59 µM (inactive)	33.1 µM (inactive)	78.3 µM (inactive)	> 100 µM (inactive)	76.7 µM (inactive)	> 100 µM (inactive)	> 100 µM (inactive)	43.4 µM (inactive)	53.8 µM (inactive)	> 100 µM (inactive)	33.6 µM (inactive)	
CCO/C(Cc1ccc(Cl)cc1)=N/NC(N)=S	> 100 µM (inactive)	> 100 µM (inactive)	> 100	> 100 µM (inactive)	> 100 µM (inactive)	> 100 µM (inactive)	> 100 µM (inactive)	> 100 µM (inactive)	> 100 µM (inactive)	> 100 µM (inactive)	> 100 µM (inactive)	> 100 µM (inactive)	> 100 µM (inactive)	> 100 µM (inactive)	> 100 µM (inactive)	> 100 µM (inactive)	> 100 µM (inactive)	> 100 µM (inactive)	> 100 µM (inactive)
CCOC(=O)c1c(SCCO)n(-c2ccccc2)c(=S)n(-c2ccccc2)c1=O	> 100 µM (inactive)		> 100	> 100 µM (inactive)	> 100 µM (inactive)	> 100 µM (inactive)	> 100 µM (inactive)	> 100 µM (inactive)	> 100 µM (inactive)	> 100 µM (inactive)	> 100 µM (inactive)		> 100 µM (inactive)	> 100 µM (inactive)	> 100 µM (inactive)	> 100 µM (inactive)	> 100 µM (inactive)	> 100 µM (inactive)	> 100 µM (inactive)
CCNCC(O)COc1ccc2c(c1)[n+]([O-])nc(N)[n+]2[O-] (configuration not stated)	30.1 µM (inactive)		63.7	68.9 µM (inactive)	36.3 µM (inactive)	74 µM (inactive)	> 100 µM (inactive)	> 100 µM (inactive)		> 100 µM (inactive)	37.2 µM (inactive)	37.3 µM (inactive)	> 100 µM (inactive)	10.6 µM (inactive)	45.4 µM (inactive)	61.2 µM (inactive)	29.4 µM (inactive)	32.7 µM (inactive)	> 100 µM (inactive)
CC1(C)CC2=C(SC3C=CC=CC3N2)C(=O)C1C(=O)C(N)=O (configuration not stated)	> 100 µM (inactive)	> 100 µM (inactive)	> 100	> 100 µM (inactive)	> 100 µM (inactive)	> 100 µM (inactive)	> 100 µM (inactive)	> 100 µM (inactive)		> 100 µM (inactive)	> 100 µM (inactive)	> 100 µM (inactive)	> 100 µM (inactive)	> 100 µM (inactive)	> 100 µM (inactive)	> 100 µM (inactive)	> 100 µM (inactive)	> 100 µM (inactive)	> 100 µM (inactive)
NCCS [CYSTEAMINE HYDROCHLORIDE]	> 100 µM (inactive)	> 100 µM (inactive)	> 100	> 100 µM (inactive)	> 100 µM (inactive)	> 100 µM (inactive)	> 100 µM (inactive)	> 100 µM (inactive)	> 100 µM (inactive)	> 100 µM (inactive)	> 100 µM (inactive)	45.8 µM (inactive)	> 100 µM (inactive)		> 100 µM (inactive)	> 100 µM (inactive)	> 100 µM (inactive)	> 100 µM (inactive)	> 100 µM (inactive)
